Like-named read-outs stand apart in the source and are kept apart here.
Columns and labels:
giant foxtail = assay: Test A pre-/postemergence herbicide test; assay type: in vivo, Setaria faberii; details: for pest or weed control at 1000 g/ha: Setaria faberi, 240 h, 1000 g ai/ha, read-out: Plant response rating, Foxtail, Giant
Summary of the method: (§1)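 Seeds in loam–sand blend received preemergence directed soil spray; separately, plants 2–10 cm at one- to two-leaf stage received postemergence spray, both with test chemicals in non-phytotoxic solvent with surfactant. After ~10 days in greenhouse, injury rated visually against untreated controls, 0 (no effect) to 100 (complete control).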

pigweed [1] = assay: Test A pre-/postemergence herbicide test; assay type: in vivo, Amaranthus retroflexus; details: for pest or weed control at 1000 g/ha: Amaranthus retroflexus, 240 h, 1000 g ai/ha, read-out: Plant response rating, Pigweed
Summary of the method: as §1

corn = assay: Test A pre-/postemergence herbicide test; assay type: in vivo, Zea mays; details: for Corn plant response rating (crop injury, 0 = no effect, 100 = complete kill) at 1000 g/ha: Zea mays, 240 h, 1000 g ai/ha
Summary of the method: as §1

ryegrass, Italian = assay: Test C pre-/postemergence herbicide test; assay type: in vivo, Lolium multiflorum
Summary of the method: (§2)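 Pre-emergence: seeds sown in loam/sand blend and treated with compound in surfactant-containing solvent. Post-emergence: plants at 2–18 cm (1- to 4-leaf stage) in peat-based medium sprayed with the same formulation. Visual rating versus controls after 13–15 days in greenhouse, scale 0 (no effect) to 100 (complete control).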

galium = assay: Test C pre-/postemergence herbicide test; assay type: in vivo, Galium aparine
Excerpt: (§3) Seeds of plant species selected from blackgrass (Alopecurus myosuroides), ryegrass, Italian (Italian ryegrass, Lolium multiflorum), wheat (winter wheat, Triticum aestivum), galium (catchweed bedstraw, Galium aparine), corn (Zea mays), crabgrass, large (large crabgrass, Digitaria sanguinalis), foxtail, giant (giant foxtail, Setaria faberii), johnsongrass (Sorghum halepense), lambsquarters (Chenopodium album), morningglory (Ipomoea coccinea), nutsedge, yellow (yellow nutsedge, Cyperus esculentus), pigweed (Amaranthus retroflexus), ragweed (common ragweed, Ambrosia elatior), soybean (Glycine max), barnyardgrass (Echinochloa crus-galli), oilseed rape (Brassica napus), waterhemp (common waterhemp, Amaranthus rudis), kochia (Kochia scoparia), oat, wild (wild oat, Avena fatua), surinam grass (Brachiaria decumbens), foxtail, green (green foxtail, Setaria viridis), goosegrass (Eleusine indica), bromegrass, downy (downy bromegrass, Bromus tectorum), nightshade (eastern black nightshade, Solanum ptycanthum), cocklebur (common cocklebur, Xanthium strumarium), cupgrass, woolly (woolly cupgrass, Eriochloa villosa), bermudagrass (Cynodon dactylon), sunflower, (common oilseed sunflower, Helianthus annuus), Russian thistle (Salsola kali) and velvetleaf (Abutilon theophrasti) were planted into a blend of loam soil and sand and treated preemergence with test chemicals formulated in a non-phytotoxic solvent mixture which included a surfactant. At the same time, plants selected from these crop and weed species and also barley (winter barley, Hordeum vulgare), […]), chickweed (common chickweed, Stellaria media), deadnettle (henbit deadnettle, Lamium amplexicaule), and canarygrass (littleseed canarygrass, Phalaris minor) were planted in pots containing Redi-Earth® planting medium (Scotts Company, 14111 Scottslawn Road, Marysville, Ohio 43041) comprising spaghnum peat moss, vermiculite, wetting agent and starter nutrients and treated with postemergence applications of test chemicals formulated in the same manner. Plants ranged in height from 2 to 18 cm (1- to 4-leaf stage) for postemergence treatments. Treated plants and controls were maintained in a greenhouse for 13 to 15 days, after which time all species were compared to controls and visually evaluated. Plant response ratings, summarized in Table C, are based on a scale of 0 to 100 where 0 is no effect and 100 is complete control. A dash (-) response means no test result.

johnsongrass = assay: Test C pre-/postemergence herbicide test; assay type: in vivo, Sorghum halepense
Summary of the method: as §2

nutsedge, yellow = assay: Test C pre-/postemergence herbicide test; assay type: in vivo, Cyperus esculentus
Excerpt: as §3

pigweed [2] = assay: Test C pre-/postemergence herbicide test; assay type: in vivo, Amaranthus retroflexus
Excerpt: as §3

ragweed = assay: Test C pre-/postemergence herbicide test; assay type: in vivo, Ambrosia elatior
Excerpt: as §3

waterhemp = assay: Test C pre-/postemergence herbicide test; assay type: in vivo, Amaranthus rudis
Excerpt: as §3

[3] = 125 g ai/ha, visual rating, 0 to 100 scale, 0 no effect, 100 complete control, approximately 10 days, preemergence
[4] = Postemergence, 125 g ai/ha, 0 to 100 scale, 0 is no effect, 100 is complete control
[5] = preemergence, 500 g ai/ha, 0 to 100 scale, 0 is no effect and 100 is complete control
[6] = Postemergence, 31 g ai/ha, scale 0 to 100 (0 no effect, 100 complete control)
[7] = Postemergence, 62 g ai/ha, scale 0 (no effect) to 100 (complete control)
[8] = Postemergence, 125 g ai/ha, scale 0 to 100 (0 no effect, 100 complete control)
[9] = Postemergence, 250 g ai/ha, scale 0 to 100 (0 no effect, 100 complete control)
[10] = Preemergence, 31 g ai/ha, scale 0 to 100, 0 is no effect and 100 is complete control
[11] = Preemergence, 62 g ai/ha, scale 0 to 100 (0 no effect, 100 complete control)
[12] = Preemergence, 125 g ai/ha, scale 0 to 100 (0 no effect, 100 complete control)
[13] = post-emergence, Postemergence, 0 to 100 scale (0 no effect, 100 complete control)
[14] = pre-emergence, Preemergence, visual rating on 0 to 100 scale (0 no effect, 100 complete control), approx. 10 days
[15] = Postemergence, 31 g ai/ha, scale 0 (no effect) to 100 (complete control)
[16] = Postemergence, 62 g ai/ha, scale 0 to 100 (0 no effect, 100 complete control)
[17] = Preemergence, 62 g ai/ha, scale 0 to 100
[18] = Preemergence, 31 g ai/ha, scale 0 to 100 (0 no effect, 100 complete control)
[19] = Preemergence, 250 g ai/ha, scale 0 to 100 (0 no effect, 100 complete control)
[20] = Postemergence, 125 g ai/ha, 0 to 100 scale, 0 no effect, 100 complete control
[21] = Postemergence, 500 g ai/ha, 0 to 100 scale (0 no effect, 100 complete control)
[22] = Preemergence, 125 g ai/ha, visual rating on 0 to 100 scale (0 no effect, 100 complete control)
[23] = preemergence, 500 g ai/ha, 0 to 100 scale

O=C1NC[C@H](c2cccc(C(F)(F)F)c2)[C@H]1C(=O)Nc1cccc(F)c1F [Compound 206]
10: Plant response rating, Ryegrass, Italian (ryegrass, Italian; [8]) | Ragweed plant response rating (ragweed; [11])
60: Plant response rating, Corn (corn; [4]) | Plant response rating, Galium (galium; [6])
45: Plant response rating, Ryegrass, Italian (ryegrass, Italian; [12])
35: Plant response rating, Ryegrass, Italian (ryegrass, Italian; [9]) | Plant response rating, Johnsongrass (johnsongrass; [9]) | Plant response rating, Waterhemp (waterhemp; [8])
85: Plant response rating (scale of 0 to 100), Galium (galium; Preemergence, 250 g ai/ha) | Plant response rating, Johnsongrass (johnsongrass; [12]) | Plant response rating (scale of 0 to 100), Johnsongrass (johnsongrass; Preemergence, 250 g ai/ha) | Plant response rating (scale of 0 to 100), Pigweed (pigweed [2]; Preemergence, 250 g ai/ha)
80: Plant response rating, Pigweed (pigweed [1]; [5]) | Corn plant response rating (0 to 100 scale, 0 is no effect, 100 is complete control) (corn; Postemergence, 500 g ai/ha) | Ragweed plant response rating (ragweed; [10])
100: Pigweed plant response rating (pigweed [2]; [11]) | Plant response rating, Pigweed (pigweed [2]; [12]) | Waterhemp plant response rating (waterhemp; [11]) | Plant response rating, Waterhemp (waterhemp; [12]) | Plant response rating (scale of 0 to 100), Waterhemp (waterhemp; Preemergence, 250 g ai/ha)
70: Pigweed plant response rating (0 to 100 scale, 0 is no effect, 100 is complete control) (pigweed [1]; Postemergence, 500 g ai/ha) | Galium plant response rating (galium; [11]) | Plant response rating, Galium (galium; [12]) | Pigweed plant response rating (pigweed [2]; [10]) | Plant response rating, Ragweed (ragweed; [12]) | Waterhemp plant response rating (waterhemp; [10])
90: Plant response rating, Foxtail, Giant (giant foxtail; [3]) | Plant response rating, Foxtail, Giant (giant foxtail; [4]) | Foxtail, Giant plant response rating (0 to 100 scale, 0 is no effect, 100 is complete control) (giant foxtail; Postemergence, 500 g ai/ha) | Plant response rating, Foxtail, Giant (giant foxtail; [5])
30: Plant response rating, Pigweed (pigweed [1]; [3]) | Ryegrass, Italian plant response rating (ryegrass, Italian; [10]) | Plant response rating, Pigweed (pigweed [2]; [6]) | Plant response rating, Pigweed (pigweed [2]; [9]) | Plant response rating, Waterhemp (waterhemp; [9])
50: Plant response rating, Pigweed (pigweed [1]; [4]) | Plant response rating, Pigweed (pigweed [2]; [8])
98: Plant response rating (scale of 0 to 100), Ragweed (ragweed; Preemergence, 250 g ai/ha)
5: Plant response rating, Ragweed (ragweed; [6]) | Plant response rating, Ragweed (ragweed; [9])
40: Ryegrass, Italian plant response rating (ryegrass, Italian; [11]) | Plant response rating, Pigweed (pigweed [2]; [7])
0: Plant response rating, Ryegrass, Italian (ryegrass, Italian; [6]) | Plant response rating, Ryegrass, Italian (ryegrass, Italian; [7]) | Plant response rating, Johnsongrass (johnsongrass; [6]) | Plant response rating, Johnsongrass (johnsongrass; [7]) | Plant response rating, Johnsongrass (johnsongrass; [8]) | Plant response rating, Nutsedge, Yellow (nutsedge, yellow; [6]) | Plant response rating, Nutsedge, Yellow (nutsedge, yellow; [8]) | Plant response rating, Nutsedge, Yellow (nutsedge, yellow; [9]) | Nutsedge, Yellow plant response rating (nutsedge, yellow; [10]) | Nutsedge, Yellow plant response rating (nutsedge, yellow; [11]) | Plant response rating, Nutsedge, Yellow (nutsedge, yellow; [12]) | Plant response rating (scale of 0 to 100), Nutsedge, Yellow (nutsedge, yellow; Preemergence, 250 g ai/ha) | Plant response rating, Ragweed (ragweed; [7]) | Plant response rating, Waterhemp (waterhemp; [6]) | Plant response rating, Waterhemp (waterhemp; [7])
75: Plant response rating, Galium (galium; [7]) | Plant response rating, Galium (galium; [8]) | Plant response rating, Galium (galium; [9])
25: Johnsongrass plant response rating (johnsongrass; [10]) | Plant response rating, Ragweed (ragweed; [8])
20: Plant response rating (scale of 0 to 100), Ryegrass, Italian (ryegrass, Italian; Preemergence, 250 g ai/ha) | Galium plant response rating (galium; [10]) | Plant response rating, Nutsedge, Yellow (nutsedge, yellow; [7])
65: Johnsongrass plant response rating (johnsongrass; [11])

O=C1NCC(c2ccc(F)c(F)c2)C1C(=O)Nc1cccc(F)c1F (stereo not shown) [Compound 17, N-(2,3-difluorophenyl)-4-(3,4-difluorophenyl)-2-oxo-3-pyrrolidinecarboxamide]
0: Plant response rating, Ryegrass, Italian (ryegrass, Italian; [15]) | Plant response rating, Ryegrass, Italian (ryegrass, Italian; [16]) | Plant response rating, Ryegrass, Italian (ryegrass, Italian; [8]) | Plant response rating, Galium (galium; [15]) | Plant response rating, Galium (galium; [16]) | Plant response rating, Galium (galium; [8]) | Plant response rating, Galium (galium; [9]) | Galium plant response rating (galium; [18]) | Plant response rating, Johnsongrass (johnsongrass; [15]) | Plant response rating, Johnsongrass (johnsongrass; [16]) | Plant response rating, Johnsongrass (johnsongrass; [8]) | Plant response rating, Johnsongrass (johnsongrass; [9]) | Plant response rating, Nutsedge, Yellow (nutsedge, yellow; [15]) | Plant response rating, Nutsedge, Yellow (nutsedge, yellow; [16]) | Plant response rating, Nutsedge, Yellow (nutsedge, yellow; [8]) | Plant response rating, Nutsedge, Yellow (nutsedge, yellow; [9]) | Plant response rating, Nutsedge, Yellow (nutsedge, yellow; [17]) | Plant response rating, Nutsedge, Yellow (nutsedge, yellow; [12]) | Plant response rating, Pigweed (pigweed [2]; [15]) | Plant response rating, Pigweed (pigweed [2]; [16]) | Plant response rating, Pigweed (pigweed [2]; [8]) | Plant response rating, Pigweed (pigweed [2]; [9]) | Plant response rating, Pigweed (pigweed [2]; [17]) | Plant response rating, Ragweed (ragweed; [15]) | Plant response rating, Ragweed (ragweed; [16]) | Plant response rating, Ragweed (ragweed; [8]) | Plant response rating, Ragweed (ragweed; [9]) | Plant response rating, Ragweed (ragweed; [17])
30: Plant response rating, Ragweed (ragweed; [12])
50%: pest or weed control at 1000 g/ha (pigweed [1]; [14])
35: Plant response rating, Ryegrass, Italian (ryegrass, Italian; [12])
5: Plant response rating, Ryegrass, Italian (ryegrass, Italian; [9]) | Plant response rating, Ryegrass, Italian (ryegrass, Italian; [17]) | Plant response rating, Johnsongrass (johnsongrass; [17])
65: Plant response rating, Johnsongrass (johnsongrass; [12])
90%: pest or weed control at 1000 g/ha (giant foxtail; [13]) | pest or weed control at 1000 g/ha (giant foxtail; [14])
90: Plant response rating, Galium (galium; [19])
60%: Corn plant response rating (crop injury, 0 = no effect, 100 = complete kill) at 1000 g/ha (corn; [13]) | Corn plant response rating (crop injury, 0 = no effect, 100 = complete kill) at 1000 g/ha (corn; [14])
40%: pest or weed control at 1000 g/ha (pigweed [1]; [13])
70: Plant response rating, Galium (galium; [17]) | Plant response rating, Galium (galium; [12])
50: Plant response rating, Pigweed (pigweed [2]; [12])

O=C1NCC(c2ccc(Cl)c(Cl)c2)C1C(=O)Nc1ccccc1F (racemic) [Compound 14]
85: Plant response rating, Galium (galium; [19])
60: Plant response rating, Foxtail, Giant (giant foxtail; [20])
80: Plant response rating, Foxtail, Giant (giant foxtail; [21]) | Foxtail, Giant plant response rating (giant foxtail; [22])
70: Plant response rating, Galium (galium; [12])
0: Plant response rating, Pigweed (pigweed [1]; [20]) | Plant response rating, Pigweed (pigweed [1]; [21]) | Pigweed plant response rating (pigweed [1]; [22]) | Plant response rating, Corn (corn; [20]) | Plant response rating, Corn (corn; [21]) | Corn plant response rating (corn; [22]) | Plant response rating, Corn (corn; [23]) | Plant response rating, Ryegrass, Italian (ryegrass, Italian; [17]) | Plant response rating, Ryegrass, Italian (ryegrass, Italian; [12]) | Plant response rating, Galium (galium; [17]) | Galium plant response rating (galium; [18]) | Plant response rating, Johnsongrass (johnsongrass; [17]) | Plant response rating, Johnsongrass (johnsongrass; [12]) | Plant response rating, Nutsedge, Yellow (nutsedge, yellow; [17]) | Plant response rating, Nutsedge, Yellow (nutsedge, yellow; [12]) | Plant response rating, Pigweed (pigweed [2]; [17]) | Plant response rating, Pigweed (pigweed [2]; [12]) | Plant response rating, Ragweed (ragweed; [17]) | Plant response rating, Ragweed (ragweed; [12])
20: Plant response rating, Pigweed (pigweed [1]; [23])
90: Plant response rating, Foxtail, Giant (giant foxtail; [23])

Reference: patent publication US10294202B2, “Pyrrolidinones as herbicides” (FMC Corporation, priority 2013, dated 2019)
